Patent US12617785B2, “Pyrrolo[2,3-b]pyridine-3-carboxamide compositions and methods for ameliorating hearing loss” (priority 2020, dated 2026)
Structures can show the parent of a compound that is named as a salt.

Assays:
Lats1 [1] = target: T1, Lats1 (Homo sapiens, UniProt O95835); test: In vitro kinase assay (HTRF KinEASE-STK S1) Lats1, 2 mM ATP; type: biochemical
T1 construct: purchased Carna 01-123
T1 sequence (O95835 1-1130): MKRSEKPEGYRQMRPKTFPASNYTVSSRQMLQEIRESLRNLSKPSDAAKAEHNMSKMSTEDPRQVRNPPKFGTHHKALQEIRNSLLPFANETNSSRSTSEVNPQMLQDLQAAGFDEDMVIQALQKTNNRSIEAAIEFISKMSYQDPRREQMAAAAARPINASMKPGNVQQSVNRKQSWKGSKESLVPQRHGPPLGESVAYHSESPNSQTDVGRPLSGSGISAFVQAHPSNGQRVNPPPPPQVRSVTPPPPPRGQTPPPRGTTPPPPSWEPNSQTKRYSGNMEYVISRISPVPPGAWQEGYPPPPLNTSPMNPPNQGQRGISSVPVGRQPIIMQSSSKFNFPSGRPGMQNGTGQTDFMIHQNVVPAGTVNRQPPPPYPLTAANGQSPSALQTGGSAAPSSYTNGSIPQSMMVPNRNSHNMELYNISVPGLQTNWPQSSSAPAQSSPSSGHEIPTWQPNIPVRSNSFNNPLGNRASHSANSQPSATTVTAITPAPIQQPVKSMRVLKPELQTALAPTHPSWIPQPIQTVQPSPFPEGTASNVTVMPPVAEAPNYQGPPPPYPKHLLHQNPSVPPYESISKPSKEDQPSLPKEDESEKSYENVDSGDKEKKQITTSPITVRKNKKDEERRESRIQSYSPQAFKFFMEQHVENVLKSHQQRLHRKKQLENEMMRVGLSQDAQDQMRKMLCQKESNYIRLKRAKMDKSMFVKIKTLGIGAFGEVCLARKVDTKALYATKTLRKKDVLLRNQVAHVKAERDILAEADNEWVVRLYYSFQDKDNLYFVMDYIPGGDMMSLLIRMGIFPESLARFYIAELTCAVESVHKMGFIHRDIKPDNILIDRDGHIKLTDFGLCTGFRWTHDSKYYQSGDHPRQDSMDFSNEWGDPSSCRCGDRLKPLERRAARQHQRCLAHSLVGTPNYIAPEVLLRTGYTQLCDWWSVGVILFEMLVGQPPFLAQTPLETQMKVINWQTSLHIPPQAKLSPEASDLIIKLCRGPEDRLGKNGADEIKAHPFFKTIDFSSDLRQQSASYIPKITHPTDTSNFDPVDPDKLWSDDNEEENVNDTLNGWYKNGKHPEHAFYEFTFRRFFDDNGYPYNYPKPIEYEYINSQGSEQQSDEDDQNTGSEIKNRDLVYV
Protocol: (§1) Reactions were conducted with 10 μM STK1 substrate and 10 μM ATP or 2 mM ATP as shown below. […] The enzyme, substrate, ATP, and test compound of the invention were combined in a low-volume 384-well plate and shaken for 50 min at room temperature, unless otherwise indicated. The reaction was stopped by adding the detection reagents, which were prepared at an 8:1 biotin:streptavidin ratio and shaking for 60 min at room temperature. All reactions were conducted in triplicate and a Synergy NEO (Biotek) was used to detect the signal.
Assay was carried out in a 384 well plate. Each drug dosage curve was done with 16 points of 3-fold dilutions in 100% DMSO, and triplicate.

Lats1 [2] = target: T1, Lats1; test: In vitro kinase assay (HTRF KinEASE-STK S1) Lats1, 10 uM ATP; type: biochemical
Protocol: IVKA assay at 10 uM method:
as §1

[3] = 2 mM ATP, read-out: LATS1_HTRF_2 mM ATP IC50
[4] = 10 uM ATP, read-out: LATS1_HTRF_10 uM ATP IC50

O=C(/N=c1\sccn1CC1CCOCC1)c1c[nH]c2ncccc12 [T56]
IC50 (Lats1 [1]; [3]): 1.02 µM

Cc1cn(Cc2ccccc2)/c(=N/C(=O)c2c[nH]c3ncccc23)s1 [T26]
IC50 (Lats1 [2]; [4]): 0.0745 µM

CCOC(=O)c1cs/c(=N\C(=O)c2c[nH]c3ncccc23)n1Cc1ccccc1 [T79, Ethyl (2Z)-3-benzyl-2-(1H-pyrrolo[2,3-b]pyridine-3-carbonylimino)thiazole-4-carboxylate]
IC50 (Lats1 [1]): 0.022 µM

O=C(/N=c1\sccn1CCc1ccccc1)c1c[nH]c2ncccc12 [T40]
IC50 (Lats1 [2]; [4]): 0.0887 µM

Cn1cc(Cn2ccs/c2=N\C(=O)c2c[nH]c3ncccc23)cn1 [T59]
IC50 (Lats1 [1]; [3]): 6.06 µM

O=C(/N=c1\sccn1-c1ccccc1Cl)c1c[nH]c2ncccc12 [T65]
IC50 (Lats1 [1]; [3]): 0.0001 µM

NCc1ccccc1-n1ccs/c1=N\C(=O)c1c[nH]c2ncccc12 [T32]
IC50 (Lats1 [1]): 0.043 µM

O=C(/N=c1\sccn1-c1ccc2c(c1)CNCC2)c1c[nH]c2ncccc12 [T62, (Z)—N-(3-(1,2,3,4-tetrahydroisoquinolin-7-yl)thiazol-2(3H)-ylidene)-1H-pyrrolo[2,3-b]pyridine-3-carboxamide]
IC50 (Lats1 [1]; [3]): 0.126 µM

Cc1[nH]c2ncccc2c1C(=O)/N=c1\sccn1Cc1ccccc1 [T04]
IC50 (Lats1 [2]; [4]): 0.159 µM

O=C(/N=c1\sccn1Cc1ccncc1)c1c[nH]c2ncccc12 [T52, (Z)—N-(3-(pyridin-4-ylmethyl)thiazol-2(3H)-ylidene)-1H-pyrrolo[2,3-b]pyridine-3-carboxamide]
IC50 (Lats1 [1]): 4.88 µM

O=Cc1ccc(Cn2ccs/c2=N\C(=O)c2c[nH]c3ncccc23)cc1 [T48, (Z)—N-(3-(4-formylbenzyl)thiazol-2(3H)-ylidene)-1H-pyrrolo[2,3-b]pyridine-3-carboxamide]
IC50 (Lats1 [2]): 0.8 µM

NC(=O)c1cccc(-n2ccs/c2=N\C(=O)c2c[nH]c3ncccc23)c1 [T60]
IC50 (Lats1 [1]): 0.418 µM

Nc1cc(-n2ccs/c2=N\C(=O)c2c[nH]c3ncccc23)ccn1 [T35]
IC50 (Lats1 [1]): 0.329 µM

CNC(=O)c1cs/c(=N\C(=O)c2c[nH]c3ncccc23)n1-c1ccccc1Cl [T81]
IC50 (Lats1 [1]; [3]): 0.00367 µM

N#Cc1ccc(Cn2ccs/c2=N\C(=O)c2c[nH]c3ncccc23)cc1 [T46, (Z)—N-(3-(4-cyanobenzyl)thiazol-2(3H)-ylidene)-1H-pyrrolo[2,3-b]pyridine-3-carboxamide]
IC50 (Lats1 [2]; [4]): 0.391 µM

Cc1ccc2c(C(=O)/N=c3\sccn3Cc3ccccc3)c[nH]c2n1 [T02]
IC50 (Lats1 [2]; [4]): 5.84 µM

CN(C)C(=O)c1cs/c(=N\C(=O)c2c[nH]c3ncccc23)n1-c1ccccc1Cl [T82]
IC50 (Lats1 [1]): 0.02 µM

O=C(/N=c1\sccn1-c1ccccn1)c1c[nH]c2ncccc12 [T30]
IC50 (Lats1 [1]): 0.279 µM

O=C(/N=c1\occ(CO)n1Cc1ccccc1)c1c[nH]c2ncccc12 [T78, (Z)—N-(3-benzyl-4-(hydroxymethyl)oxazol-2(3H)-ylidene)-1H-pyrrolo[2,3-b]pyridine-3-carboxamide]
IC50 (Lats1 [1]; [3]): 0.0016 µM

O=C(/N=c1\sccn1-c1cccnc1)c1c[nH]c2ncccc12 [T31]
IC50 (Lats1 [1]): 3.8 µM

CC(C)c1cs/c(=N\C(=O)c2c[nH]c3ncccc23)n1Cc1ccccc1 [T69]
IC50 (Lats1 [1]): 0.168 µM

Cc1cs/c(=N\C(=O)c2c[nH]c3ncccc23)n1C1CCCCC1 [T74]
IC50 (Lats1 [1]): 0.0002 µM

O=C(/N=c1\sccn1C1CCNCC1)c1c[nH]c2ncccc12 [T75, (Z)—N-(3-(piperidin-4-yl)thiazol-2(3H)-ylidene)-1H-pyrrolo[2,3-b]pyridine-3-carboxamide hydrochloride]
IC50 (Lats1 [1]): 0.0925 µM

O=C(/N=c1\sccn1C1CCCCC1)c1c[nH]c2ncccc12 [T57, (Z)—N-(3-cyclohexylthiazol-2(3H)-ylidene)-1H-pyrrolo[2,3-b]pyridine-3-carboxamide]
IC50 (Lats1 [1]): 0.0005 µM

NCc1ccc(Cn2ccs/c2=N\C(=O)c2c[nH]c3ncccc23)cc1 [T47, (Z)—N-(3-(4-(aminomethyl)benzyl)thiazol-2(3H)-ylidene)-1H-pyrrolo[2,3-b]pyridine-3-carboxamide]
IC50 (Lats1 [2]; [4]): 0.0832 µM

O=C(/N=c1\scc(CO)n1Cc1ccccc1)c1c[nH]c2ncccc12 [T72, (Z)—N-(3-benzyl-4-(hydroxymethyl)thiazol-2(3H)-ylidene)-1H-pyrrolo[2,3-b]pyridine-3-carboxamide]
IC50 (Lats1 [1]): 0.0002 µM

O=C(/N=c1\sccn1-c1ccccc1Br)c1c[nH]c2ncccc12 [T29]
IC50 (Lats1 [1]): 0.0205 µM

O=C(/N=c1\sccn1C1CCOCC1)c1c[nH]c2ncccc12 [T76]
IC50 (Lats1 [1]): 2.19 µM

Cc1ccnc2[nH]cc(C(=O)/N=c3\sccn3Cc3ccccc3)c12 [T05]
IC50 (Lats1 [1]; [3]): 3.26 µM

COc1cccc(-n2ccs/c2=N\C(=O)c2c[nH]c3ncccc23)c1 [T23]
IC50 (Lats1 [1]; [3]): 0.576 µM

Cc1cccc(-n2ccs/c2=N\C(=O)c2c[nH]c3ncccc23)c1 [T20]
IC50 (Lats1 [1]; [3]): 0.155 µM

COC(=O)c1cccc(Cn2ccs/c2=N\C(=O)c2c[nH]c3ncccc23)c1 [T33]
IC50 (Lats1 [2]; [4]): 0.224 µM

CCn1ccs/c1=N\C(=O)c1c[nH]c2ncccc12 [T38, (Z)—N-(3-ethylthiazol-2(3H)-ylidene)-1H-pyrrolo[2,3-b]pyridine-3-carboxamide]
IC50 (Lats1 [2]; [4]): 0.027 µM

N#Cc1ccccc1-n1ccs/c1=N\C(=O)c1c[nH]c2ncccc12 [T28]
IC50 (Lats1 [1]; [3]): 0.194 µM

O=C(/N=c1\sccn1-c1cccc(Cl)c1)c1c[nH]c2ncccc12 [T66]
IC50 (Lats1 [1]; [3]): 0.193 µM

O=C(/N=c1\sccn1-c1ccc(CO)cc1)c1c[nH]c2ncccc12 [T36]
IC50 (Lats1 [1]): 0.06 µM

O=C(O)CCn1ccs/c1=N\C(=O)c1c[nH]c2ncccc12 [T51, (Z)-3-(2-((1H-pyrrolo[2,3-b]pyridine-3-carbonyl)imino)thiazol-3(2H)-yl)propanoic acid]
IC50 (Lats1 [1]): 0.607 µM

Cc1ccc(-n2ccs/c2=N\C(=O)c2c[nH]c3ncccc23)cc1 [T21]
IC50 (Lats1 [1]; [3]): 0.0075 µM

O=C(O)c1cccc(Cn2ccs/c2=N\C(=O)c2c[nH]c3ncccc23)c1 [T34]
IC50 (Lats1 [2]; [4]): 6.25 µM

CCc1cs/c(=N\C(=O)c2c[nH]c3ncccc23)n1Cc1ccccc1 [T68]
IC50 (Lats1 [1]; [3]): 0.0595 µM

O=C(/N=c1\sccn1Cc1ccccc1)c1c[nH]c2ncc(Cl)cc12 [T06]
IC50 (Lats1 [2]; [4]): 0.0922 µM

O=C(/N=c1\sccn1Cc1ccccn1)c1c[nH]c2ncccc12 [T54]
IC50 (Lats1 [1]): 11 µM

Cc1co/c(=N\C(=O)c2c[nH]c3ncccc23)n1Cc1ccccc1 [T77, (Z)—N-(3-benzyl-4-methyloxazol-2(3H)-ylidene)-1H-pyrrolo[2,3-b]pyridine-3-carboxamide]
IC50 (Lats1 [1]; [3]): 0.107 µM

O=C(/N=c1\sccn1Cc1cccnc1)c1c[nH]c2ncccc12 [T53, (Z)—N-(3-(pyridin-3-ylmethyl)thiazol-2(3H)-ylidene)-1H-pyrrolo[2,3-b]pyridine-3-carboxamide]
IC50 (Lats1 [1]): 1.1 µM

Cc1ccccc1-n1ccs/c1=N\C(=O)c1c[nH]c2ncccc12 [T19]
IC50 (Lats1 [1]): 0.0003 µM

COc1ccc(-n2ccs/c2=N\C(=O)c2c[nH]c3ncccc23)cc1 [T24]
IC50 (Lats1 [1]): 0.112 µM

CN(C)CCNC(=O)c1cs/c(=N\C(=O)c2c[nH]c3ncccc23)n1Cc1ccccc1 [T80, (Z)-3-Benzyl-N-[2-(dimethylamino)ethyl]-2-(1H-pyrrolo[2,3-b]pyridine-3-carbonylimino)thiazole-4-carboxamide]
IC50 (Lats1 [1]): 0.082 µM

Cc1cnc2[nH]cc(C(=O)/N=c3\sccn3Cc3ccccc3)c2c1 [T03]
IC50 (Lats1 [2]; [4]): 0.148 µM

Cc1cs/c(=N\C(=O)c2c[nH]c3ncccc23)n1CC1CCCCC1 [T73]
IC50 (Lats1 [1]; [3]): 0.0008 µM

N#Cc1ccccc1Cn1ccs/c1=N\C(=O)c1c[nH]c2ncccc12 [T42, (Z)—N-(3-(2-cyanobenzyl)thiazol-2(3H)-ylidene)-1H-pyrrolo[2,3-b]pyridine-3-carboxamide]
IC50 (Lats1 [2]; [4]): 0.0129 µM

Cn1c(Cc2ccccc2)cs/c1=N\C(=O)c1c[nH]c2ncccc12 [T64]
IC50 (Lats1 [1]; [3]): 7.86 µM

NCc1cccc(-n2ccs/c2=N\C(=O)c2c[nH]c3ncccc23)c1 [T61, (Z)—N-(3-(3-(aminomethyl)phenyl)thiazol-2(3H)-ylidene)-1H-pyrrolo[2,3-b]pyridine-3-carboxamide]
IC50 (Lats1 [1]): 0.0186 µM

COc1ccccc1-n1ccs/c1=N\C(=O)c1c[nH]c2ncccc12 [T22]
IC50 (Lats1 [1]; [3]): 0.72 µM

O=C(/N=c1\sccn1-c1ccc(Cl)cc1)c1c[nH]c2ncccc12 [T27]
IC50 (Lats1 [1]): 0.0449 µM

O=C(/N=c1\scc(C(F)(F)F)n1Cc1ccccc1)c1c[nH]c2ncccc12 [T71]
IC50 (Lats1 [1]): 0.176 µM
